Measured values published in patent publication US8552067B2, “Macromolecular conjugates of cystic fibrosis transmembrane conductance regulator protein inhibitors and uses therefor” (The Regents of the University of California, priority 2006, dated 2013).
Where a name gives a salt, the structure may show the parent alone.

Key:
wildtype CFTR [1] = biological target: T1, wildtype CFTR (Homo sapiens, UniProt P13569); experiment: Whole-cell patch-clamp on FRT cells stably expressing wildtype CFTR; settings: after stepping membrane potential to +80 mV; MalH-ConA 250 nM, GlyH-101 5 μM
T1 sequence (P13569 whole entry): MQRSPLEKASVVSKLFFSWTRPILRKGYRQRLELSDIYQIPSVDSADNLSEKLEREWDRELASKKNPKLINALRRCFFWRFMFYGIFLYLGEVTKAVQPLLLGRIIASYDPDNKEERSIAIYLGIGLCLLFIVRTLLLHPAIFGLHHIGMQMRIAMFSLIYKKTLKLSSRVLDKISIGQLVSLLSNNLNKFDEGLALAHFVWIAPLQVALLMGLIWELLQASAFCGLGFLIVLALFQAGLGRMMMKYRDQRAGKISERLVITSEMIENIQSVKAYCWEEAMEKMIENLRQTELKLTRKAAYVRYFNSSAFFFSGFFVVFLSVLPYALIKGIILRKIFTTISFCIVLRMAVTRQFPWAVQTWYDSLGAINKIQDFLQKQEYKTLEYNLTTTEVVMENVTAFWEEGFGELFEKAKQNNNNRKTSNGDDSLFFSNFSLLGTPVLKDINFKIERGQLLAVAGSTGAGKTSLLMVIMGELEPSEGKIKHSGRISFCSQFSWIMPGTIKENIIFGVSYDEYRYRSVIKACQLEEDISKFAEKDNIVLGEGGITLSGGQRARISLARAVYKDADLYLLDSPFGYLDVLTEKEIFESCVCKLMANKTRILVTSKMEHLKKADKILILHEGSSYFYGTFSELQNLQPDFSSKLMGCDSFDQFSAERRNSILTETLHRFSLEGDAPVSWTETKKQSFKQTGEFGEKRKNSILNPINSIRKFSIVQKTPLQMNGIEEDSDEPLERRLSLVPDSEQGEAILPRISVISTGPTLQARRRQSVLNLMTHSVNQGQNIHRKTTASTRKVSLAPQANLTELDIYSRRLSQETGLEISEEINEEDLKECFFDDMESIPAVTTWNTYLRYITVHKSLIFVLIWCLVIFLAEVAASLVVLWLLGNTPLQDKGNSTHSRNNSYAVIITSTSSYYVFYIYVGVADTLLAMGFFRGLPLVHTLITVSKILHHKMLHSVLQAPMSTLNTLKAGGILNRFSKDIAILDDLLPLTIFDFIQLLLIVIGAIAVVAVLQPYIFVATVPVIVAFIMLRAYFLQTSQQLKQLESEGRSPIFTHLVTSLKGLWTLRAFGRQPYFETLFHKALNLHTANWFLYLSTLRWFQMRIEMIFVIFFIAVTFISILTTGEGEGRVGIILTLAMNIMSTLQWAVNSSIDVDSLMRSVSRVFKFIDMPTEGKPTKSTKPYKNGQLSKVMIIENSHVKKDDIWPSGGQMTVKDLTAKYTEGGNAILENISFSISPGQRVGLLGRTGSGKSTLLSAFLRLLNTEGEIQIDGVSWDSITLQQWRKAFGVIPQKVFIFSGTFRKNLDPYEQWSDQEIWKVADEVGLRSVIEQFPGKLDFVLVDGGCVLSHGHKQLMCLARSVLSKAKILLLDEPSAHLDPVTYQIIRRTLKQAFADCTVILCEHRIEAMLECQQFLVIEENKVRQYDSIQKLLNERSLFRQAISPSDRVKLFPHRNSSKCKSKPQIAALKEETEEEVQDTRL

wildtype CFTR [2] = biological target: T1, wildtype CFTR; experiment: Apical membrane chloride current (short-circuit current) in FRT epithelial cells expressing human wildtype CFTR
CFTR = biological target: T2, CFTR (Homo sapiens, UniProt P13569); experiment: Reversibility of CFTR chloride current inhibition after washout; type: cell-based; settings: after 95-100% inhibition; MalH-ConA over six hours
T2 construct: expressed in transfected cells; host or cells: Fischer rat thyroid (FRT) cells
T2 sequence (P13569 whole entry): as above
Method: Chloride current increased slowly with incubation time, with 50% ‘reversal’ at approximately 8 h.

[3] = Water solubility (statement); type: physicochemical

SMILES | time constant of current decay (single exponential) (wildtype CFTR [1]) [ms] | IC50 (wildtype CFTR [2]) [nM] | effect of mannose on CFTR inhibitory potency (wildtype CFTR [2]; 200 mM mannose) | effect of heat denaturation on CFTR inhibition activity (wildtype CFTR [2]; 100° C. for 5 min) | effect of EDTA on CFTR inhibition potency (wildtype CFTR [2]; EDTA in buffer (chelation of Ca2+ and Mg2+)) | effect of excess unconjugated ConA on CFTR inhibition potency (wildtype CFTR [2]; excess ConA (5 μM) added before compound) | effect of acid incubation on capability to inhibit CFTR (wildtype CFTR [2]; incubation at either pH 1.5 or pH 5.2) | CFTR inhibition after pronase treatment (wildtype CFTR [2]; pronase 8 hours, pH 8, 37° C.) | reversal of CFTR inhibition after washout and forskolin re-addition (CFTR) | water solubility [3]
O=C(CNc1ccc2ccccc2c1)NN=Cc1cc(Br)c(O)c(Br)c1O [GlyH-101, N^2-naphthalenyl-[3,5-[dibromo-2,4-dihydroxyphenyl)methylene]glycine hydrazide] | 8 to 10 |  |  |  |  |  |  |  |  | 
O=C(NN=Cc1cc(Br)c(O)c(Br)c1)C(Nc1ccc2ccccc2c1)C(=O)NNC(=S)Nc1ccc(C=Cc2ccc(N=C=S)cc2S(=O)(=O)O)c(S(=O)(=O)O)c1 (stereo not shown) [MalH-DIDS, 2-naphthalenylamino-[(3,5-dibromo-4-dihydroxyphenyl)methylene]hydrazide [[[4-[2-(4-isothiocyanato-2-sulfophenypethenyl]-2-sulfophenyl]amino]thioxomethyl]hydrazide-propanedioic acid, disodium salt] |  | 1000 | did not affect | did not affect | did not affect | did not affect | did not affect | not affected | Near-complete and rapid reversal | highly water soluble
